Assays:
[1] = target: T1, Glutathione reductase, mitochondrial (Homo sapiens, UniProt P00390); test: Glutathione Reductase Activity Assay; details: pH 8
T1 sequence (P00390 whole entry): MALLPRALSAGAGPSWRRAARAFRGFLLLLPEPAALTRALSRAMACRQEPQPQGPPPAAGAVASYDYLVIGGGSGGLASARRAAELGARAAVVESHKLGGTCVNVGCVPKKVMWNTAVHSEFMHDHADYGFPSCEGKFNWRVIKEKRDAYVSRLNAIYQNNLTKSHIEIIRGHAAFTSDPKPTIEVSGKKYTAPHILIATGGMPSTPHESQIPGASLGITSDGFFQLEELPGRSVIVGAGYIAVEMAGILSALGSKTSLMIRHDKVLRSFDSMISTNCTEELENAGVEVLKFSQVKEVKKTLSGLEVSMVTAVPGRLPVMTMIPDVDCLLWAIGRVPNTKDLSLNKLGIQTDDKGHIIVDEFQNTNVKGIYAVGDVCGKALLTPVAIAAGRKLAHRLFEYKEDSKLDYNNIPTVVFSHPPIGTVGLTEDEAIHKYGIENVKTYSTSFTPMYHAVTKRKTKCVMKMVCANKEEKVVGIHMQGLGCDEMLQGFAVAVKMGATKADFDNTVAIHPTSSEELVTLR
Method: Enzymatic activity was measured by Beutler's method with a Shimadzu Spectrophotometer UV-(1208), at 25°C. The assay system contained 100 mM Tris-HCl buffer pH 8.0, including 0.5 mM EDTA, 3.3 mM GSSG and 0.1 mM NADPH. One enzyme unit is defined as the oxidation of 1 μmol NADPH per min under the assay condition at 25°C.

[2] = target: T2, Glutathione peroxidase 1 (Homo sapiens, UniProt P07203); test: Glutathione Peroxidase Activity Assay; details: pH 7
T2 sequence (P07203 whole entry): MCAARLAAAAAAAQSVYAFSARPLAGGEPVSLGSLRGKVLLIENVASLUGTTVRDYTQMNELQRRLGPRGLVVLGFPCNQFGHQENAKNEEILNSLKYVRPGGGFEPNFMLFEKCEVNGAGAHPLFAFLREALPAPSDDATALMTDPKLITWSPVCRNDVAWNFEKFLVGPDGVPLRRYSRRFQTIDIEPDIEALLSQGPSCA
Method: Glutathione peroxidase was assayed in a l-ml system containing 0.1 M potassium phosphate buffer, pH 7.0, 0.2 mM NADPH, 1 i.u. glutathione reductase, 4 mM GSH,4 mM EDTA, 4 mM sodium azide. The reaction mixture was incubated at 37°C for 10 min after which 10 μl of 10 mM t-butyl hydroperoxide were added to start the reaction. No t-butyl hydroperoxide was added to the blank cuvette. The rate of reaction was measured at 37°C by following the decrease in the absorbance at 340 nm using a spectrophotometer.

[3] = target: T3, Microsomal glutathione S-transferase 1 (Homo sapiens, UniProt P10620); test: Glutathione S-transferase Activity Assay; details: pH 6.5
T3 sequence (P10620 whole entry): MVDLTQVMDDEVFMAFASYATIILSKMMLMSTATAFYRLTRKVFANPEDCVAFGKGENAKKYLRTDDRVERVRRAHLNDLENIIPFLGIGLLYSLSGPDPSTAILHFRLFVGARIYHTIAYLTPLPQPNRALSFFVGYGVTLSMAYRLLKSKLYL
Method: Enzymatic activity was determined spectrophotometrically by measuring the conjugation of CDNB with GSH. The 1 ml assay mixture contained 0.5 mM CDNB, 1 mMGSH, and 100 mM potassium phosphate buffer, pH 6.5. The rate of increase in absorbance at 340 nm was measured for 5 mm at 37°C against a blank containing thereaction mixture without enzyme.

SMILES	IC50 [1] [µM]	Ki [1] [µM]	IC50 [2] [µM]	Ki [2] [µM]	IC50 [3] [µM]	Ki [3] [µM]
CO/N=C(\C(=O)N[C@@H]1C(=O)N2C(C(=O)O)=C(CSc3nc(=O)c(=O)[nH]n3C)CS[C@H]12)c1csc(N)n1 [(6R,7R)-7-{2-(2-Amino-thiazol-4-yl)-2-[(Z)-methoxyimino]-acetylamino}-3-(2-methyl-5,6-dioxo-1,2,5,6-tetrahydro-[1,2,4]triazin-3-ylsulfanylmethyl)-8-oxo-5-thia-1-aza-bicyclo[4.2.0]oct-2-ene-2-carboxylic acid]	21.3	17.3	48.6	34.1	61.8	35.4
CO/N=C(\C(=O)N[C@@H]1C(=O)N2C(C(=O)O)=CCS[C@H]12)c1csc(N)n1 [Ceftizoxime]	39.7	22.8	186	121	278	165
CO/N=C(\C(=O)N[C@@H]1C(=O)N2C(C(=O)O)=C(COC(N)=O)CS[C@H]12)c1ccco1 [640/359]	18.8	10.4	44.3	32.7	56.4	32.4
CCN1CCN(C(=O)N[C@@H](C(=O)N[C@@H]2C(=O)N3C(C(=O)O)=C(CSc4nnnn4C)CS[C@H]23)c2ccc(O)cc2)C(=O)C1=O [CEFOPERAZONE]	48.4	28.7	313	245	484	267

From BindingDB's records for doi:10.3109/14756366.2012.688042 (Ondokuz Mayis University, 2013)
